The numbers were not newly measured in patent US20230372216A1, “METHOD FOR DYEING KERATINOUS MATERIAL, COMPRISING THE USE OF AN ORGANOSILICON COMPOUND, A DYEING COMPOUND, A SEALING REAGENT AND A PRE-TREATMENT AGENT” (Henkel AG & Co. KGaA, priority 2020, published 2023), which cites them from elsewhere.

For the data set the following is noted: 25° C.
As to `CCN(Cc1cccc(S(=O)(=O)[O-])c1)c1ccc(C(=C2C=CC(=[N+](CC)Cc3cccc(S(=O)(=O)[O-])c3)C=C2)c2ccccc2S(=O)(=O)[O-])cc1.[Na+].[Na+]` [Acid Blue 9], the solubility in water result is on record as “more than 20 wt. %”.

Regarding `O=S(=O)([O-])c1ccc(N=Nc2c(O)ccc3ccccc23)cc1.[Na+]` [Acid Orange 7, sodium salt of 4-[(2-hydroxy-1-naphthyl)azo]benzene sulphonate], the solubility in water result is on record as “more than 7 g/L”.

In the case of `Nc1cc(S(=O)(=O)[O-])cc2cc(S(=O)(=O)[O-])c(N=Nc3ccccc3)c(O)c12.[Na+].[Na+]` [Acid Red 33, disodium salt of 5-amino-4-hydroxy-3-(phenylazo)-naphthalene-2,7-disulphonate], the solubility in water is 2.5 mg/mL.

For `O=C([O-])c1c(Cl)c(Cl)c(Cl)c(Cl)c1-c1c2c(Br)cc(=O)c(Br)c-2oc2c(Br)c(O)cc(Br)c12.O=C([O-])c1c(Cl)c(Cl)c(Cl)c(Cl)c1-c1c2c(Br)cc(=O)c(Br)c-2oc2c(Br)c(O)cc(Br)c12.[Na+].[Na+]` [Acid Red 92, disodium salt of 3,4,5,6-tetrachloro-2-(1,4,5,8-tetrabromo-6-hydroxy-3-oxoxanthen-9-yl)benzoic acid], the solubility in water entry was “greater than 10 g/L”.

With `O=C([O-])C1=NN(c2ccc(S(=O)(=O)[O-])cc2)C(=O)C1N=Nc1ccc(S(=O)(=O)[O-])cc1.[Na+].[Na+].[Na+]` (stereo not drawn) [Acid Yellow 23, trisodium salt of 4,5-dihydro-5-oxo-1-(4-sulfophenyl)-4-((4-sulfophenyl)azo)-1H-pyrazole-3-carboxylic acid], the “solubility in water (in words)” value is on record as “highly soluble in water”.

On to “sodium salts of mono- and disulfonic acids of 2-(2-quinolyl)-1H-indene-1,3(2H)-dione [Acid Yellow 3]”, for which the solubility in water was 20 mg/mL.
